pEC50: −log10 of the molar value.
Test system: HBV
Assay: HepAD38 antiviral assay: reduction of viral product accumulation (virion DNA by qPCR, HBsAg or HBeAg by ELISA)
Assay type: cell-based, hepatitis B virus
Details: HepAD38 cells, five days after compound addition; concentration reducing viral product accumulation by 50% relative to no drug controls; read-out: HepAD38 EC50
How it was run: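 HepAD38 cells were washed free of tetracycline, plated at 35,000 cells/well and given compounds diluted 1:200 from DMSO. After 5 days, or 8 days with media and compound refreshed on d2 and d5, virion DNA was measured by qPCR and HBsAg or HBeAg by ELISA. EC50 is the concentration giving 50% reduction of viral product versus no-drug controls.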

First: O=C(Nc1cc(F)c(F)c(F)c1)c1ccc(Cl)c(S(=O)(=O)C2CC3O[C@H]3C2)c1 (stereo partly shown) [Example 86]
Second: O=C(Nc1cc(F)c(F)c(F)c1)c1ccc(Cl)c(S(=O)(=O)C2CC3CCC(C2)C3=O)c1 (stereo not shown) [Example 245]
The pEC50 of the first is lower: < 6.40 for the first, 6.40 to 7.00 for the second.

In the case of `O=C(Nc1cc(F)c(F)c(F)c1)c1ccc(Cl)c(S(=O)(=O)[C@H]2CC3CCC(C2)[C@]3(O)CO)c1` [Example 208], the pEC50 was < 6.40.

Same assay, conditions: Hepatitis B virus, HePAD38, 120 h, HepAD38 cells, five days after compound addition; concentration reducing viral product accumulation by 50% relative to no drug controls; read-out: HepAD38 EC50

First: C=C1CCC(S(=O)(=O)c2cc(C(=O)Nc3cc(F)c(F)c(F)c3)ccc2Cl)CC1 [Example 104]
Second: O=C(Nc1cc(F)c(F)c(F)c1)c1ccc(Cl)c(S(=O)(=O)[C@@H]2CCC[C@H](O)C2)c1 (racemic) [Example 58]
The pEC50 of the first is higher: 6.40 to 7.00 for the first, < 6.40 for the second.

`CC(C)(C)OC(=O)N1CCC[C@H]1C(=O)NC[C@]1(O)C2CCC1C[C@@H](S(=O)(=O)c1cc(C(=O)Nc3cc(F)c(F)c(F)c3)ccc1Cl)C2` [Example 365] and `CC(C)(C)OC(=O)NCC(=O)NC[C@]1(O)C2CCC1C[C@@H](S(=O)(=O)c1cc(C(=O)Nc3cc(F)c(F)c(F)c3)ccc1Cl)C2` [Example 348] cannot be ordered by pEC50: > 7.00 for the first, > 7.00 for the second.

`O=C(Nc1cc(F)c(F)c(F)c1)c1ccc(Cl)c(S(=O)(=O)[C@H]2C3CC[C@H]2C[C@](O)(C(=O)O)C3)c1` [Example 131] and `COC(=O)[C@]1(O)CC2CC[C@@H](C1)[C@H]2S(=O)(=O)c1cc(C(=O)Nc2cc(F)c(F)c(F)c2)ccc1Cl` [Example 153] cannot be ordered by pEC50: < 6.40 for the first, < 6.40 for the second.

`O=C(Nc1cc(F)c(F)c(F)c1)c1ccc(Cl)c(S[C@H]2C3CC4C[C@H](C3)C[C@@H]2C4)c1` [Example 174] and `C=C1CC2CCC(C1)C2Sc1cc(C(=O)Nc2cc(F)c(F)c(F)c2)ccc1Cl` (stereo not shown) [Example 39] cannot be ordered by pEC50: < 6.40 for the first, < 6.40 for the second.

`O=C(Nc1cc(F)c(F)c(F)c1)c1ccc(Cl)c(S(=O)(=O)C2C[C@@H]3O[C@H](C2)[C@@H](O)[C@H]3O)c1` (stereo partly shown) [Example 355] and `O=C(Nc1cc(F)c(F)c(F)c1)c1ccc(Cl)c(S(=O)(=O)[C@@H]2C[C@H](O)C[C@H](O)C2)c1` [Example 79] cannot be ordered by pEC50: < 6.40 for the first, < 6.40 for the second.

`O=C(Nc1cc(F)c(F)c(F)c1)c1ccc(Cl)c(S(=O)(=O)[C@H]2CC[C@](O)(CO)CC2)c1` [Example 109] and `O=C(Nc1cc(F)c(F)c(F)c1)c1ccc(Cl)c(S(=O)(=O)[C@H]2CC[C@@](O)(CO)CC2)c1` [Example 110] fall in the same range of pEC50: 6.40 to 7.00 for the first, 6.40 to 7.00 for the second.

`O=C(Nc1cc(F)c(F)c(F)c1)c1ccc(Cl)c(S(=O)(=O)CC2CCOCC2)c1` [Example 113] and `O=C(Nc1cc(F)c(F)c(F)c1)c1ccc(Cl)c(S(=O)(=O)CCC2CCOCC2)c1` [Example 123] fall in the same range of pEC50: 6.40 to 7.00 for the first, 6.40 to 7.00 for the second.

`CC1(C)O[C@@H]2[C@@H](CS(=O)(=O)c3cc(C(=O)Nc4cc(F)c(F)c(F)c4)ccc3Cl)OC(=O)[C@]2(C)O1` [Example 98] and `C[C@]1(O)C(=O)O[C@H](CS(=O)(=O)c2cc(C(=O)Nc3cc(F)c(F)c(F)c3)ccc2Cl)[C@H]1O` [Example 99] cannot be ordered by pEC50: < 6.40 for the first, < 6.40 for the second.

`O=C(Nc1cc(F)c(F)c(F)c1)c1ccc(Cl)c(S(=O)(=O)C2C[C@H]3CC[C@@H](C2)O3)c1` (stereo partly shown) [Example 356] and `O=C(Nc1cc(F)c(F)c(F)c1)c1ccc(Cl)c(S(=O)(=O)[C@H]2CC3CCC(C2)[C@@H]3O)c1` [Example 192] fall in the same range of pEC50: 6.40 to 7.00 for the first, 6.40 to 7.00 for the second.

Compared with `O=C(Nc1cc(F)c(F)c(F)c1)c1ccc(Cl)c(S(=O)(=O)[C@H]2C3CC[C@H]2C[C@](O)(/C=[N+](\[O-])Cc2ccccc2)C3)c1` [Example 199], `O=C(Nc1cc(F)c(F)c(F)c1)c1ccc(Cl)c(S(=O)(=O)[C@H]2C3CC[C@H]2C[C@](O)(/C=N/OCc2ccccc2F)C3)c1` [Example 244] is higher in pEC50: 6.40 to 7.00 for the first, > 7.00 for the second.

`CC(C)(C)OC(=O)N[C@@H](Cc1ccccc1)C(=O)NC[C@]1(O)C2CCC1C[C@@H](S(=O)(=O)c1cc(C(=O)Nc3cc(F)c(F)c(F)c3)ccc1Cl)C2` [Example 364] and `CC(=O)NC[C@]1(O)C2CCC1C[C@@H](S(=O)(=O)c1cc(C(=O)Nc3cc(F)c(F)c(F)c3)ccc1Cl)C2` [Example 345] cannot be ordered by pEC50: > 7.00 for the first, > 7.00 for the second.

`COC(=O)C1OCN(Cc2ccccc2)[C@]12CC1CC[C@@H](C2)[C@H]1S(=O)(=O)c1cc(C(=O)Nc2cc(F)c(F)c(F)c2)ccc1Cl` (stereo partly shown) [Example 212] and `COC(=O)C1CON(Cc2ccccc2)C1[C@]1(O)CC2CC[C@@H](C1)[C@H]2S(=O)(=O)c1cc(C(=O)Nc2cc(F)c(F)c(F)c2)ccc1Cl` (stereo partly shown) [Example 213] cannot be ordered by pEC50: < 6.40 for the first, < 6.40 for the second.

`O=C1CC2CC[C@@H](C1)[C@@H]2CS(=O)(=O)c1cc(C(=O)Nc2cc(F)c(F)c(F)c2)ccc1Cl` [Example 179] and `O=C(Nc1cc(F)c(F)c(F)c1)c1ccc(Cl)c(S(=O)(=O)C[C@@H]2C3CC[C@H]2C[C@](O)(CO)C3)c1` [Example 178] cannot be ordered by pEC50: > 7.00 for the first, > 7.00 for the second.

`COc1cc(NC(=O)c2ccc(Cl)c(S(=O)(=O)[C@H]3CC[C@H](O)CC3)c2)ccc1F` [Example 26] and `O=C(Nc1ccnc(Cl)c1)c1ccc(Cl)c(S(=O)(=O)[C@H]2CC[C@H](O)CC2)c1` [Example 24] cannot be ordered by pEC50: < 6.40 for the first, < 6.40 for the second.

Compared with `O=C(Nc1cc(F)c(F)c(F)c1)c1ccc(Cl)c(S(=O)(=O)[C@H]2CC3CCC(C2)[C@]3(O)c2ccc(F)cn2)c1` [Example 323], `NC[C@]1(O)C2CCC1C[C@@H](S(=O)(=O)c1cc(C(=O)Nc3cc(F)c(F)c(F)c3)ccc1Cl)C2` [Example 347] is lower in pEC50: > 7.00 for the first, 6.40 to 7.00 for the second. The first is the more potent here.

First: C[C@@]1(O)CC2CC[C@@H](C1)[C@H]2S(=O)(=O)c1cc(C(=O)Nc2cc(F)c(F)c(F)c2)ccc1Cl [Example 247]
Second: CC[C@]1(O)CC2CC[C@@H](C1)[C@H]2S(=O)(=O)c1cc(C(=O)Nc2cc(F)c(F)c(F)c2)ccc1Cl [Example 268]
The pEC50 of the first is higher: > 7.00 for the first, 6.40 to 7.00 for the second.

First: C=CCC1(S(=O)(=O)c2cc(C(=O)Nc3cc(F)c(F)c(F)c3)ccc2Cl)CCCCC1 [Example 81]
Second: O=C(Nc1cc(F)c(F)c(F)c1)c1ccc(Cl)c(S(=O)(=O)C2(CCO)CCCCC2)c1 [Example 89]
The pEC50 of the first is lower: < 6.40 for the first, 6.40 to 7.00 for the second. The second is the more potent here.

`Cc1c(NC(=O)c2ccc(Cl)c(S(=O)(=O)[C@]3(C)CC[C@H](O)CC3)c2)cc(F)c(F)c1F` [Example 18] and `O=C(Nc1cc(F)c(F)c(F)c1)c1ccc(Cl)c(S(=O)(=O)[C@H]2C3CCC2C[C@@H](O)C3)c1` [Example 44] fall in the same range of pEC50: 6.40 to 7.00 for the first, 6.40 to 7.00 for the second.

`CC(C)(CO)S(=O)(=O)c1cc(C(=O)Nc2cc(F)c(F)c(F)c2)ccc1Cl` [Example 124] and `CC(C)([C@H]1C[C@@H](O)C1)S(=O)(=O)c1cc(C(=O)Nc2cc(F)c(F)c(F)c2)ccc1Cl` [Example 118] fall in the same range of pEC50: 6.40 to 7.00 for the first, 6.40 to 7.00 for the second.

`COc1ccc(COC[C@]2(O)CC3CC[C@@H](C2)[C@H]3S(=O)(=O)c2cc(C(=O)Nc3cc(F)c(F)c(F)c3)ccc2Cl)cc1` [Example 315] and `COc1ccc(CO/N=C/[C@]2(O)CC3CC[C@@H](C2)[C@H]3S(=O)(=O)c2cc(C(=O)Nc3cc(F)c(F)c(F)c3)ccc2Cl)cc1` [Example 233] cannot be ordered by pEC50: > 7.00 for the first, > 7.00 for the second.

First: O=C(Nc1cc(F)c(F)c(F)c1)c1ccc(Cl)c(S(=O)(=O)[C@H]2C3CC[C@H]2[C@@H](CO)C(=O)C3)c1 [Example 163]
Second: O=C(Nc1cc(F)c(F)c(F)c1)c1ccc(Cl)c(S(=O)(=O)[C@H]2CC3CCC(C2)[C@@H]3CO)c1 [Example 250]
The pEC50 of the first is higher: 6.40 to 7.00 for the first, < 6.40 for the second.

First: COC(=O)C1CON(C)[C@]12CC1CC[C@@H](C2)[C@H]1S(=O)(=O)c1cc(C(=O)Nc2cc(F)c(F)c(F)c2)ccc1Cl (stereo partly shown) [Example 218]
Second: CN1OCC(C#N)C1[C@]1(O)CC2CC[C@@H](C1)[C@H]2S(=O)(=O)c1cc(C(=O)Nc2cc(F)c(F)c(F)c2)ccc1Cl (stereo partly shown) [Example 200]
The pEC50 of the first is lower: < 6.40 for the first, 6.40 to 7.00 for the second.

First: O=C(Nc1cc(F)c(F)c(F)c1)c1ccc(Cl)c(S(=O)(=O)[C@H]2CC3CCC(C2)[C@H]3O)c1 [Example 183]
Second: O=C(Nc1cc(F)c(F)c(F)c1)c1ccc(Cl)c(S(=O)(=O)[C@H]2C3CC[C@H]2C[C@@](O)(CO)C3)c1 [Example 164]
The pEC50 of the first is lower: 6.40 to 7.00 for the first, > 7.00 for the second.

`CC(O)CNC[C@]1(O)C2CCC1C[C@@H](S(=O)(=O)c1cc(C(=O)Nc3cc(F)c(F)c(F)c3)ccc1Cl)C2` (stereo partly shown) [Example 342] and `O=C(Nc1cc(F)c(F)c(F)c1)c1ccc(Cl)c(S(=O)(=O)[C@H]2CC3CCC(C2)[C@]3(O)CC(O)CO)c1` (stereo partly shown) [Example 361] cannot be ordered by pEC50: > 7.00 for the first, > 7.00 for the second.

`O=C(Nc1cc(F)c(F)c(F)c1)c1ccc(Cl)c(S(=O)(=O)C2CCN(c3ccccn3)CC2)c1` [Example 95] and `O=C(Nc1cc(F)c(F)c(F)c1)c1ccc(Cl)c(S(=O)(=O)[C@H]2C3CC[C@H]2C[C@@](O)(C#Cc2ccncc2)C3)c1` [Example 170] cannot be ordered by pEC50: < 6.40 for the first, < 6.40 for the second.

Going from `COC(=O)[C@@H](NC[C@]1(O)C2CCC1C[C@@H](S(=O)(=O)c1cc(C(=O)Nc3cc(F)c(F)c(F)c3)ccc1Cl)C2)C(C)C` [Example 339] to `CC(=O)N1C[C@]2(OC1(C)C)C1CCC2C[C@@H](S(=O)(=O)c2cc(C(=O)Nc3cc(F)c(F)c(F)c3)ccc2Cl)C1` [Example 346], the pEC50 rises from < 6.40 to > 7.00. The second is the more potent here.

`C[C@H](N)C(=O)OC[C@]1(O)CC2CC[C@@H](C1)[C@H]2S(=O)(=O)c1cc(C(=O)Nc2cc(F)c(F)c(F)c2)ccc1Cl` [Example 248] and `O=C(Nc1cc(F)c(F)c(F)c1)c1ccc(Cl)c(S(=O)(=O)C[C@H]2C3CC[C@H]2C[C@](O)(CO)C3)c1` [Example 177] cannot be ordered by pEC50: > 7.00 for the first, > 7.00 for the second.

First: O=C(Nc1cc(F)c(F)c(F)c1)c1ccc(Cl)c(S(=O)(=O)[C@H]2C3CC[C@H]2C[C@](O)(/C=N/OCc2cccc(F)c2)C3)c1 [Example 236]
Second: O=C(Nc1cc(F)c(F)c(F)c1)c1ccc(Cl)c(S(=O)(=O)[C@H]2C3CC[C@H]2C[C@]2(C3)OC(=O)[C@@H](O)[C@@H]2O)c1 [Example 338]
The pEC50 of the first is higher: 6.40 to 7.00 for the first, < 6.40 for the second.

Compared with `CNC(=O)OC[C@@H]1CC2CC[C@@H](C1)[C@H]2S(=O)(=O)c1cc(C(=O)Nc2cc(F)c(F)c(F)c2)ccc1Cl` [Example 318], `CCOC(=O)C(F)(F)Sc1cc(C(=O)Nc2cc(F)c(F)c(F)c2)ccc1Cl` [Example 91] is lower in pEC50: > 7.00 for the first, < 6.40 for the second. The first is the more potent here.

— patent US10538532B2, “Hepatitis B antiviral agents” (ENANTA PHARMACEUTICALS, INC., priority 2016, dated 2020)
